Consider two compounds from patent publication US20040091935A1, “Strains of Mycoplasma hyorhinis as causative agent for systemic sclerosis” (priority 2002, published 2004).

The assay relates to Mycoplasma hyorhinis. Kind of assay: Plaque assay of the infectious agent on Vero cell monolayers with antibiotics. Type of assay: cell-based. The settings on record: ciprofloxacin 0.5 mg/ml, doxicycline 1 mg/ml, antibiotic added for 24 hours or 7 days, assay sensitivity 10 pfu/ml, FIG. 12.

“Also recorded” adds a separate entry of the source. Starred links: 1 amine or outer side, 2 acyl side, 3 side chain; linkers in the order of their positions; H or OH if unused. Positions of bridges follow the written chain, without caps; N, C: chain ends. Non-standard residues stand in square brackets, D forms with d. Residues, ends and D or L forms follow the SMILES beside them. Chains are numbered I, II in the order given. Actinocin(9to1) = Cc1c2oc3c(C)ccc(C(=O)[*:1])c3nc-2c(C(=O)[*:2])c(N)c1=O; NMeV = CN[C@H](C(=O)O)C(C)C; Sar = CNCC(=O)O

With `Cc1c2oc3c(C)ccc(C(=O)N[C@@H]4C(=O)N[C@H](C(C)C)C(=O)N5CCC[C@H]5C(=O)N(C)CC(=O)N(C)[C@@H](C(C)C)C(=O)O[C@@H]4C)c3nc-2c(C(=O)N[C@@H]2C(=O)N[C@H](C(C)C)C(=O)N3CCC[C@H]3C(=O)N(C)CC(=O)N(C)[C@@H](C(C)C)C(=O)O[C@@H]2C)c(N)c1=O` [actinomycin D] (I: T[dV]P[Sar][NMeV] / II: T[dV]P[Sar][NMeV]; ester I:1-I:C, II:1-II:C; linker I:N-II:N via Actinocin(9to1)), the “Plaque formation induced by the infectious agent” value was “prevented plaque formation”.
The result for `C[C@H]1c2cccc(O)c2C(O)=C2C(=O)[C@]3(O)C(O)=C(C(N)=O)C(=O)[C@@H](N(C)C)[C@@H]3[C@@H](O)[C@@H]21` [doxicyclin] reads “prevented plaque formation; also recorded: inhibited”.
